This assay relates to 7-week-old female C57BL/6N mice. As to the kind of experiment: Bone healing after GST-RANKL administration. In kind it is in vivo, mouse. As for the experimental part:
GST-RANKL was intraperitoneally administered twice to groups of 7-week-old female C57BL/6N mice at 1 mg/kg every 24 hours. The time point 24 hours after the 2nd administration was designated as “week 0.” The serum and femur were collected from each mouse separately at weeks 0, 1, 4, 6, and 8 and compared with those collected from mice subjected to PBS administration in a similar manner. Regarding bone metabolism markers, TRAP-5b, calcium (Ca), and alkaline phosphatase (ALP) in the serum were measured. Each femur was subjected to bone density measurement with pQCT and image analysis with micro CT.
The bone density was measured at points 0.6 mm, 0.8 mm, 1.0 mm from the distal growth plate on the proximal side of the femur with the use of pQCT.

With “GST-RANKL: fused protein of Glutathione S-transferase with human RANKL residues 140-317, expressed in Escherichia coli, 47.0 kDa”, where the note is “1 mg/kg i.p. twice, weeks 0 to 8”, the “serum Ca concentration” value is “no significant difference”. The “femur bone density decreased to, vs PBS group” value is reported as 5% (0.6 mm, week 0); 7% (0.6 mm, week 1); 9% (0.6 mm, week 4); 10% (0.8 mm, week 0); 11% (0.8 mm, week 1); 15% (0.8 mm, week 4). For the same substance, the “femur bone density decreased to, vs PBS group” value (1.0 mm, week 0) is recorded as 16%; the “femur bone density decreased to, vs PBS group” value (1.0 mm, week 1) was determined as 13%; the “femur bone density decreased to, vs PBS group” value (1.0 mm, week 4) is given as 11%. Besides, the “serum TRAP-5b concentration, fold as high as PBS group” value (24 hours after RANKL administration (0 week)) is on record as “approximately 3 fold”. Also, under “week 6”, the “femur bone density vs PBS group” value is “returned to a level comparable to that for the PBS administration group”. The “serum ALP concentration, fold as high” value (weeks 0 and 1) is “approximately 1.4 fold”.

Values taken from patent US8334261B2, “Osteopenia animal model” (Oriental Yeast Co., Ltd., priority 2006, dated 2012).
